Assays:
[1] = biological target: T1, Phosphatidylinositol 4,5-bisphosphate 3-kinase catalytic subunit delta isoform (Homo sapiens, UniProt O00329)
T1 sequence (O00329 whole entry): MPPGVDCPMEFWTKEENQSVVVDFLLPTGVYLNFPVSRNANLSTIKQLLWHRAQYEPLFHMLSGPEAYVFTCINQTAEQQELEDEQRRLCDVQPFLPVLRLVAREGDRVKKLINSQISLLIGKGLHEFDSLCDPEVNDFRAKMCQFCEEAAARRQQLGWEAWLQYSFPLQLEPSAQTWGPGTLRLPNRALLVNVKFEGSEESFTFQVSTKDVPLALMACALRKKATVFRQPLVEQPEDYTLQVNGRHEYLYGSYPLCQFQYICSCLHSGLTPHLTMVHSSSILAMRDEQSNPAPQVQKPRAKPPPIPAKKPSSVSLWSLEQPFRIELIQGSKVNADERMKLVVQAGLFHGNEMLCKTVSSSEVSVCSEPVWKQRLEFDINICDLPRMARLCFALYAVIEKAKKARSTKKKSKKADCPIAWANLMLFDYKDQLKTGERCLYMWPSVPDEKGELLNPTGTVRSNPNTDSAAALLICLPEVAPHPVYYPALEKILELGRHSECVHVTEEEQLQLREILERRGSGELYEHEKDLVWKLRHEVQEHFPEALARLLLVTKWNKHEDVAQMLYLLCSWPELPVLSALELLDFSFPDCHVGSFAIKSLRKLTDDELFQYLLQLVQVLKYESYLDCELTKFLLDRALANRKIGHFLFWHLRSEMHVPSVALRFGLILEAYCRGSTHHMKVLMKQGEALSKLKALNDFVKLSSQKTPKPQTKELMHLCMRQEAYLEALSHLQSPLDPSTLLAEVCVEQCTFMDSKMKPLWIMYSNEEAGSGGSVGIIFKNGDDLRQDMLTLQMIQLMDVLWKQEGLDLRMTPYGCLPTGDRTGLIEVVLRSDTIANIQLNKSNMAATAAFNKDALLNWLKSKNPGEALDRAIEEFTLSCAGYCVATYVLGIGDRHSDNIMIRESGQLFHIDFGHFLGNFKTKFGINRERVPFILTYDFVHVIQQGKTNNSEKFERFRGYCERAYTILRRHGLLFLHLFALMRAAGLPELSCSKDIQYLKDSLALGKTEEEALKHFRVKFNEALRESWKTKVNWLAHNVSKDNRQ

[2] = system: B cell; assay: Antiproliferative activity against human B cells by thymidine incorporation assay; format: functional, cell-based
[3] = Stability in mouse liver microsomes assessed as parent compound remaining at 0.5 uM after 10 mins by high throughput assay; format: ADME, Microsome; conditions: read-out: Stability
[4] = biological target: T1, Phosphatidylinositol 4,5-bisphosphate 3-kinase catalytic subunit delta isoform; assay: Inhibition of PI3Kdelta in BCR-stimulated human B cells assessed as suppression of CD86 expression after 18 hrs by FACS analysis
[5] = Stability in rat liver microsomes assessed as parent compound remaining at 0.5 uM after 10 mins by high throughput assay; format: ADME, Microsome; conditions: read-out: Stability
[6] = system: Cytochrome P450; assay: Inhibition of Cytochrome P450 (unknown origin); format: ADME, protein assay; conditions: human
[7] = Half life in mouse; format: ADME, organism-based; conditions: in vivo
[8] = Clearance in mouse; format: ADME, organism-based; conditions: in vivo
[9] = system: Mus musculus; assay: Antiarthritic activity in DBA/1 mouse model of collagen-induced arthritis assessed as reduction in anti-collagen IgG titres at 100 mg/kg, po pretreated for 2 hrs followed by first collagen injection measured after second collagen injection on day 21 by ELISA relative to control; format: functional; set-up: scale not given: the % may be the effect or the level left
[10] = AUC in mouse at 30 mg/kg, po; format: ADME, organism-based; conditions: in vivo
[11] = Oral bioavailability in mouse; format: ADME, organism-based; conditions: in vivo
[12] = system: Mus musculus; assay: Antiarthritic activity in DBA/1 mouse model of collagen-induced arthritis assessed as reduction in clinical arthritic scores at 100 mg/kg, po pretreated for 2 hrs followed by first collagen injection measured after second collagen injection on day 21 relative to control; format: functional; set-up: scale not given: the % may be the effect or the level left
[13] = Cmax in mouse at 30 mg/kg, po; format: ADME, organism-based; set-up: dose 30 mg/kg, route oral; conditions: in vivo
[14] = Volume of distribution in mouse; format: ADME, organism-based; conditions: in vivo
[15] = system: Mus musculus; assay: Antiarthritic activity in DBA/1 mouse model of collagen-induced arthritis assessed as reduction in clinical arthritic scores at 1 mg/kg/day, po pretreated for 2 hrs followed by first collagen injection measured after second collagen injection on day 21 relative to control; format: functional; set-up: scale not given: the % may be the effect or the level left
[16] = system: Mus musculus; assay: Antiarthritic activity in DBA/1 mouse model of collagen-induced arthritis assessed as reduction in anti-collagen IgG titres at 1 mg/kg/day, po pretreated for 2 hrs followed by first collagen injection measured after second collagen injection on day 21 by ELISA relative to control; format: functional; set-up: scale not given: the % may be the effect or the level left

Compound | IC50 [1] | IC50 [2] | remaining at 10 min, 0.5 µM [3] | further results
Cn1cc(-c2cc(-c3ccnn3C3CCCCC3)c3c(N)ncnn23)cn1 | 11 nM | – | – | –
Nc1ncnn2c(-c3cccnc3)cc(-c3ccnn3C3CCOCC3)c12 | 42 nM | – | – | –
CC1(C)OC(=O)NC1c1cccc(-c2cc(-c3ccnn3C3CCOCC3)c3c(N)ncnn23)c1 (centres undefined) | – | 31 nM | 45% | –
Nc1ncnn2c(-c3cccnc3)cc(-c3ccnn3C3CCS(=O)(=O)CC3)c12 | 163 nM | – | – | –
Nc1ncnn2c(-c3cccnc3)cc(-c3ccnn3C3CCCC3)c12 | 29 nM | – | – | –
Nc1ncnn2c(-c3cccc(C(=O)N4CCCC4)c3)cc(-c3ccnn3C3CCCCC3)c12 | 2 nM | – | – | IC50 [4]: 36 nM
Nc1ncnn2c(-c3cccc(CN4CCCC4=O)c3)cc(-c3ccnn3C3CCOCC3)c12 | – | 35 nM | 19% | –
Nc1ncnn2c(-c3ccc(CO)cc3)cc(-c3ccnn3C3CCCCC3)c12 | 31 nM | – | – | –
Nc1ncnn2c(-c3ccccc3)cc(-c3ccnn3C3CCCCC3)c12 | 576 nM | – | – | –
CC(C)C(=O)N1C[C@H](O)C[C@H]1c1cccc(-c2cc(-c3ccnn3C3CCOCC3)c3c(N)ncnn23)c1 | 1 nM | 8 nM | 4% | IC50 [4]: 110 nM
CN1CCN(Cc2cccc(-c3cc(-c4ccnn4C4CCOCC4)c4c(N)ncnn34)c2)CC1 | 4 nM | 28 nM | 100% | IC50 [4]: 721 nM
Nc1ncnn2c(-c3cccc(CO)c3)cc(-c3ccnn3C3CCCCC3)c12 | 27 nM | – | – | –
CN1CCC(n2nccc2-c2cc(-c3cccnc3)n3ncnc(N)c23)CC1 | 150 nM | – | – | –
Nc1ncnn2c(-c3ccncc3)cc(-c3ccnn3C3CCCCC3)c12 | 22 nM | – | 16% | remaining at 10 min, 0.5 µM [5]: 46%
NCc1ccc(-c2cc(-c3ccnn3C3CCCCC3)c3c(N)ncnn23)cc1 | 26 nM | – | – | –
CS(=O)(=O)NCc1cccc(-c2cc(-c3ccnn3C3CCOCC3)c3c(N)ncnn23)c1 | – | 99 nM | – | –
Nc1ncnn2c(-c3cccnc3)cc(-c3ccnn3C3CCCCCC3)c12 | 231 nM | – | – | –
CN1C[C@H](O)C[C@@H]1c1cccc(-c2cc(-c3ccnn3C3CCOCC3)c3c(N)ncnn23)c1 | – | 87 nM | 65% | –
Nc1ncnn2c(-c3cccnc3)cc(-c3ccnn3C3CCCCC3)c12 | 22 nM | – | – | inhibition (INH) [6]: Not Active
CC(C)Cn1nccc1-c1cc(-c2cccnc2)n2ncnc(N)c12 | 252 nM | – | – | –
CN(C)C1(c2cccc(-c3cc(-c4ccnn4C4CCOCC4)c4c(N)ncnn34)c2)COC1 | – | 9 nM | 70% | –
CN(C)c1cccc(-c2cc(-c3ccnn3C3CCCCC3)c3c(N)ncnn23)c1 | 3 nM | – | – | IC50 [4]: 16 nM
Nc1ncnn2c(-c3cccc(S(N)(=O)=O)c3)cc(-c3ccnn3C3CCCCC3)c12 | 14 nM | – | – | –
Nc1ncnn2c(-c3cccc(C4(N5CCOCC5)COC4)c3)cc(-c3ccnn3C3CCOCC3)c12 | – | 1 nM | 6% | –
CN(C)C(C)(C)c1cccc(-c2cc(-c3ccnn3C3CCOCC3)c3c(N)ncnn23)c1 | – | 6 nM | 58% | half-life [7]: 60 min; clearance [8]: 82.1 mL/min/kg; Activity [9]: 80%; AUC [10]: 6.23 µM·h; bioavailability [11]: 46%; Activity [12]: 100%; Cmax [13]: 2890 nM; Vd [14]: 6.2 L/kg
Nc1ncnn2ccc(-c3ccnn3C3CCCCC3)c12 | 405 nM | – | – | –
CC(C)[C@H]1COC(=O)N1Cc1cccc(-c2cc(-c3ccnn3C3CCOCC3)c3c(N)ncnn23)c1 | – | – | 0.09% | –
CN(Cc1cnc2nc(N)nc(N)c2n1)c1ccc(C(=O)N[C@@H](CCC(=O)O)C(=O)O)cc1 [METHOTREXATE] | – | – | – | Activity [15]: 83%; Activity [16]: 63%
